The values that follow come from US8916686B2, “TDF-related compounds and analogs thereof” (Thrasos Innovation, Inc., priority 2004, dated 2014).

The subject of one test is Smad1. The test can be described thus: Smad1 nuclear translocation in HK-2 cells (immunofluorescence). The class given is cell-based, human. Particulars: 1.3 uM and 33 uM compound. The protocol:
Phosphorylation and nuclear translocation of Smads occurs following the activation of Type I and Type II receptors and subsequent signal transduction to intracellular Smad targets. Phosphorylation and nuclear translocation of R-Smad in HK-2 cells by TDFRP compounds is assayed by immuno-fluorescent microscopy methods, using anti-phospho Smad 1/5 antibodies according to the procedure of H Aoki, M Fujii, T Imamura, K Yagi, K Takehara, M Kato and K Miyazono. J. of Cell Sci. 114, 1483-1489, 2001) and by Western blot analysis (FIG. 15A-FIG. 15C).
HK2, human proximal tubule cells are incubated in culture medium alone or exposed TDFRP or control compounds for one hour ten minutes at 37 degree C. BMP-7 served as a positive control in the assay. Each well is rinsed with 1 mL prewarmed medium. 1 mL per well of cold Acetone/Methanol mix (1:1) is added and incubated for 2 minutes at room temperature to fix the cells. Wells are washed with 1 mL of cold PBS and blocked with 1 mL blocking buffer (3% BSA, 1% goat serum in PBS) for 7 minutes. Wells are aspirated without disturbing the cells, and 500 uL/well primary antibody is added (anti-phospho-Smad 1) at 0.056 ug/mL concentration in 3% BSA in PBS (no goat serum). Cells are incubated overnight at 4 degrees C. […]

Test [1] deals with rat osteosarcoma (17/2.8) cells. As to the kind of experiment: Rat osteosarcoma (ROS) cell-based alkaline phosphatase assay. Particulars: 0.02-200 uM, 2 days; relative to BMP-7 standard. The procedure: BMP interactions with Type I and Type II receptors can induce alkaline phosphatase activity, a marker for osteoblast activity, in ROS cells. An assay procedure as described earlier (Maliakal, J.C., Asahina, I., Hauschka, P. V., and Sampath, T. K. (1994) Growth factors 11, 227-234) was used to determine the biological activities of TDFRP compounds. In a typical experiment, rat osteosarcoma (17/2.8) cells are plated in 96 well plates (3.0×10^4 cells/well) and incubated overnight at 37 C in 5-6% CO2 incubator. The next day, healthy and confluent cells are treated with increasing concentrations of BMP-7 standard (1-10,000 ng/ml) served as positive control or TDFRP compounds (0.02-200 uM) prepared in medium containing 1% FBS and incubated for 2 days at 37 C in 5-6% CO2 incubator. The cellular content of alkaline phosphatase activity is determined by the method of Reddi and Huggins (Reddi, A. H., and Huggins, C. B (1972) Proc. Natl. Acad. Sci. USA 69, 1601-1605). Enzyme estimations are performed in 96 well plates. Following removal of culture medium, cells are washed with pre-warmed PBS (150 ul) and incubated in 100 ul of pre-warmed 1% Triton X-100 for 30 minutes at 37 C. Plates are centrifuged for 10 minutes at full speed, and recovered samples (15 ul) are assayed for enzyme activity by adding 90 ul p-nitrophenyl phosphate (Sigma) as a substrate in 0.05 M glycine-NaOH buffer, pH 9.3 and incubating for 20 minutes at 37 C. The reaction is stopped by adding 75 ul of 0.2 N NaOH/well and absorbance at 405/490 nm is measured on a Dynatech MR 700 plate reader. Results are expressed as relative activities compared to a BMP-7 standard.

Regarding CYFDDSSNVLCKKYRS [SEQ ID NO 45], the Smad1 translocation result with Smad1 is listed as “Smad1 Translocation”. The “induction of alkaline phosphatase activity” value in test [1] is recorded as “did not induce alkaline phosphatase activity”.
